“Also recorded” adds a separate entry of the source.
Experiments:
5-HT7 receptor = 5-HT7 receptor (Homo sapiens, UniProt P34969); conditions: cited from earlier work
[1] = tested on: circadian rhythm of hamsters; conditions: cited from earlier work
5-HT7 receptor promoter = experiment: transient transfection luciferase reporter assay with 5-HT7 promoter constructs in HEK293T cells, barbiturate treatment; type: cell-based, human
Method: HEK293T cells were maintained in Dulbecco's modified Eagle's medium supplemented with 100 units/ml penicillin, 100 μg/ml streptomycin, and 10% newborn calf serum. These cells were maintained at 37° C. in a humidified atmosphere of 5% CO2.
10^5 cells/cm^2 in 24-well dishes were transfected with 150 ng promoter plasmid and 50 ng neogal (served as an internal control), using the standard calcium phosphate coprecipitation method. 24 hours after transfection, cells were washed once with PBSA and lysed in 150 μl 100 mM potassium phosphate (pH 7.8), 0.2% Triton X-100. The samples were analyzed for luciferase activity as described previously (Vanden Berghe et al., 1998). β-Galactosidase activity was measured using Galacto Star (Tropix) as substrate. For the barbiturate experiments, treatment with different barbiturates started 24 hours after transfection of the cells
According to MatInspector, a putative BARBIE (Barbiturate Inducible Element) is present in the promoter region of the 5-HT7 receptor. To investigate the possible influence of barbiturates on 5-HT7 promoter activity, we transiently transfected HEK293T cells with the different promoter constructs and treated the transfected cells with barbiturates for 24 h (FIG. 6a). […] The reduction varied from 30-50% depending on the promoter construct used and the type of barbiturate.

GAPDH = experiment: RT-PCR analysis of GAPDH mRNA levels in 1321-N1 cells; type: cell-based, human; conditions: different concentrations, 24 h
Method: (§1) 132-1N1 human astrocytoma cells were seeded into 58 cm^2 plates; 12 hours after seeding the cells were cultured with either medium alone (−) or medium containing 10 nM, 100 nM, 500 nM, 1 μM, 2 μM or 5 μM Mithramycin A (Serva). Total RNA was isolated using a RNeasy, total RNA isolation kit (Qiagen). cDNA was synthesized using AMV reverse transcriptase (Promega). The cDNA was then amplified by PCR in a total volume of 30 μl containing 10 pmol of each primer, 200 μM dNTP, Taq DNA polymerase buffer, 2,5 units of Taq and 5 μl of cDNA. PCR conditions were 94° C., 30 sec; 56° C., 1 min; 72° C., 2 min; for 35 cycles. PCR products were analyzed by electrophoresis through 6% polyacrylamide gel.

5-HT7 promoter = experiment: luciferase reporter assay in NS20Y cells transiently transfected with the F1000 construct, mithramycin A treatment; type: cell-based, mouse; conditions: increasing concentrations, 24 h
Method: N2A and NS20Y cells were maintained in Dulbecco's modified Eagle's medium supplemented with 100 units/ml penicillin, 100 μg/ml streptomycin, and 10% foetal calf serum. These cells were maintained at 37° C. in a humidified atmosphere of 5% CO2. 4×10^5 cells in 6 well dishes were transfected with 500-1000 ng promoter construct and 300 ng neogal (served as internal control), using JetPEI a cationic polymer transfection reagent (Qbiogene).
Cells were treated with different concentrations of Mithramycin A for 24 hours.
The significance of binding by Sp1 to the 5-HT7 promoter for transcriptional activity was confirmed in experiments with mithramycin A, a compound that interferes with Sp1 binding to GC boxes in DNA.

5-HT7 mRNA = experiment: RT-PCR analysis of endogenous 5-HT7 mRNA levels in 1321-N1 cells; type: cell-based; conditions: 1321-N1 human astrocytoma cells, different concentrations, 24 h
Method: as §1

[2] = time course, HEK293T cells, 2000luc+ and 1000luc+, 1.5 mM

5-HT7 receptor, sequence (P34969 whole entry): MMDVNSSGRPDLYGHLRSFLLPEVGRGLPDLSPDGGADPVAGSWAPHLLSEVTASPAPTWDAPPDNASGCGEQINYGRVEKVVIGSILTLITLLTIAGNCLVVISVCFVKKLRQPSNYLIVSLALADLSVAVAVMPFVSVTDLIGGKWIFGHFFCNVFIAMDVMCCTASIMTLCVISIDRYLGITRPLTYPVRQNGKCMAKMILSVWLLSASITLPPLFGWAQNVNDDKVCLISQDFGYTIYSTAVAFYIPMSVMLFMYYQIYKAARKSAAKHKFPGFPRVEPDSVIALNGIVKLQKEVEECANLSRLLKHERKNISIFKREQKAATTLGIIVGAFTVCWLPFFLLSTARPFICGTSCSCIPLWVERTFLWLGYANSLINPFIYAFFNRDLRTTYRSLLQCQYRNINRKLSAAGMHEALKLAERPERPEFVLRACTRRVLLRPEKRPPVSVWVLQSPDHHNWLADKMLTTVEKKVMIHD

CCCN(CCC)C1CCc2cccc(O)c2C1 (stereo not drawn) [8-OH-DPAT]
affinity for the 5-HT7 receptor (5-HT7 receptor): high affinity | effect on circadian rhythm [1]: shifted the circadian rhythm

CCC1(CCC(C)C)C(=O)NC(=O)NC1=O [Amobarbital]
relative potency in repressing promoter activity (5-HT7 receptor promoter; HEK293T cells, 1,5 mM, 24 h, Amobarbital versus Phenobarbital): somewhat more potent | effect on 5-HT7 receptor promoter activity (5-HT7 receptor promoter; HEK293T cells, transient transfection, 1.5 mM barbiturate, 24 h): repress 5-HT7 receptor promoter activity

CCC1(c2ccccc2)C(=O)NC(=O)NC1=O [Phenobarbital]
time at which repressive effect reached a maximum (5-HT7 receptor promoter; [2]): 16 h | time at which repressive effect was already present (5-HT7 receptor promoter; [2]): ≤ 6 h

mithramycin A
levels of GAPDH (GAPDH): unaffected | 5-HT7 promoter activity (5-HT7 promoter): dose-dependent loss of promoter activity; also recorded: inhibits 5-HT7 promoter activity | 5-HT7 mRNA levels (5-HT7 mRNA): significant decrease

— patent US20050255469A1, “Human 5-ht7 receptor promoter sequence” (priority 2002, published 2005)
